Reference: ChEMBL document CHEMBL5380875, “Discovery of a Potent and Oral Available Complex I OXPHOS Inhibitor That Abrogates Tumor Growth and Circumvents MEKi Resistance” (J Med Chem, 2023)
Calls of active or inactive are those of the source. No cut-off for these calls is given here.

Key:
NCI-H460 [1] = test: Inhibition of mitochondrial complex III in human NCI-H460 cells at 1 uM incubated for 12 hrs by seahorse XF96 metabolic flux analyzer relative to control; type: cell-based
NCI-H460 [2] = test: Inhibition of mitochondrial respiration in human NCI-H460 cells with high-OXPHOS assessed as reduction in basal oxygen consumption rate incubated for 12 hrs by seahorse XF96 flux analyzer; type: functional, cell-based; conditions: dose 50-200 nM
NCI-H441 [3] = test: Inhibition of mitochondrial respiration in human NCI-H441 cells with high-OXPHOS assessed as reduction in spare oxygen consumption rate capacity incubated for 12 hrs by seahorse XF96 flux analyzer; type: functional, cell-based; conditions: dose 50-200 nM
Cytochrome P450 2D6 = Cytochrome P450 2D6 (Homo sapiens, UniProt P10635); test: Inhibition of CYP2D6 in human liver microsomes; type: ADME, Microsome
[4] = AUC (0 to 24 hrs) in ICR mouse at 10 mg/kg, po measured for 24 hrs by LC-MS/MS analysis; type: ADME, organism-based; parameters: time 24 hrs, dose 10 mg/kg, route po; conditions: in vivo
[5] = AUC (0 to infinity) in ICR mouse at 10 mg/kg, po measured for 24 hrs by LC-MS/MS analysis; type: ADME, organism-based; parameters: dose 10 mg/kg, time 24 hrs, route po; conditions: in vivo
[6] = Apparent volume of distribution in ICR mouse at 1 mg/kg, iv measured for 24 hrs by LC-MS/MS analysis; type: ADME, organism-based; conditions: in vivo, read-out: Vz
[7] = Half life in ICR mouse at 1 mg/kg, iv measured for 24 hrs by LC-MS/MS analysis; type: ADME, organism-based; conditions: in vivo
NCI-H460 [8] = test: Potentiation of trametinib-induced antitumor activity against human NCI-H460 cells with high-OXPHOS xenografted in mouse assessed as reduction in tumor volume at 30 mg/kg, po bid administered for 18 days and measured every 3 days by electronic caliper analysis; type: functional, organism-based; conditions: time 18.0 day
[9] = Toxicity in mouse xenografted with human NCI-H460 cells with high-OXPHOS assessed as reduction in body weight at 30 mg/kg, po bid administered for 18 days; type: organism-based; conditions: in vivo, 432 h, time 18 day
[10] = Toxicity in mouse xenografted with human NCI-H460 cells with high-OXPHOS assessed as reduction in serum creatinine level at 30 mg/kg, po bid administered for 18 days; type: organism-based; conditions: in vivo, 432 h, time 18 day
NCI-H441 [11] = test: Induction of apoptosis in human NCI-H441 cells with high-OXPHOS assessed as late apoptotic cells at 30 nM incubated for 48 hrs by Annexin V-FITC/propidium iodide staining based flow cytometry analysis (reference value: 9.27%); type: functional
NCI-H460 [12] = test: Inhibition of colony formation in human NCI-H460 cells with high-OXPHOS harboring KRAS Q61H mutant incubated for 10 to 14 days in presence of trametinib by crystal violet staining based analysis; type: functional, cell-based; conditions: time 10-14 day
NCI-H441 [13] = test: Inhibition of colony formation in human NCI-H441 cells with high-OXPHOS harboring KRAS G12V mutant incubated for 10 to 14 days in presence of trametinib by crystal violet staining based analysis; type: functional, cell-based; conditions: time 10-14 day
NCI-H460 [14] = test: Induction of apoptosis in human NCI-H460 cells with high-OXPHOS harboring KRAS Q61H mutant assessed as early apoptotic cells at 20 nM incubated for 72 hrs by Annexin V-FITC/propidium iodide staining based flow cytometry analysis (reference value: 1.95%); type: functional

Sequence of Cytochrome P450 2D6 (P10635 whole entry): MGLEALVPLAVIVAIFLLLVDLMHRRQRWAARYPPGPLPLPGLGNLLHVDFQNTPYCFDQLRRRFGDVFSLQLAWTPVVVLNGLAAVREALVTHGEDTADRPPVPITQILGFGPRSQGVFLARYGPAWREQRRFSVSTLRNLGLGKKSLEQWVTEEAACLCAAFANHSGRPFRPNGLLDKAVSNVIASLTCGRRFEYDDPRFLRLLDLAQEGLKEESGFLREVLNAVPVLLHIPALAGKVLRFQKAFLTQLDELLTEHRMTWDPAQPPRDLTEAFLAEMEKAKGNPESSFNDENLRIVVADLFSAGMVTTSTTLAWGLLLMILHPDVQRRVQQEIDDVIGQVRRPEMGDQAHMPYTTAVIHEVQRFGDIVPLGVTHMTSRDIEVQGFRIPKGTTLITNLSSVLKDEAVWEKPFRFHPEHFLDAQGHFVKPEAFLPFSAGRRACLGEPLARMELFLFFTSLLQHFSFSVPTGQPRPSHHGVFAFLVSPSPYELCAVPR

IC50 (Cytochrome P450 2D6): > 50 µM
AUC(0-t) at 24 h [4]: 2170 ng·h/mL
AUC(0-inf) [5]: 2300 ng·h/mL
Vd [6]: 9.34 L/kg
half-life [7]: 2.3 h
SMILES: Cc1c(C(=O)N2CCN(Cc3ccc(OCC(F)(F)F)cc3)CC2)nnn1Cc1ccc(C(=O)Nc2ccc(C(F)(F)F)cc2)nc1
inhibition (NCI-H460 [1]): 28.1%
inhibition (NCI-H460 [2]): Dose-Dependent Effect
inhibition (NCI-H441 [3]): Dose-Dependent Effect
Activity (NCI-H460 [8]): Active
Activity [9]: Non-Toxic
Activity [10]: Non-Toxic
Activity (NCI-H441 [11]): 30.9%
inhibition (NCI-H460 [12]): Active
inhibition (NCI-H441 [13]): Active
Activity (NCI-H460 [14]): 2.87%
